Experimental data from PMC3618206, “High-throughput fluorescent-based NKCC functional assay in adherent epithelial cells” (BMC Cell Biology, 2013).

System: T1, c-NKCC2 (chimeric NKCC1-NKCC2 construct)
T1 construct: gene SLC12A2; single polypeptide chimera: NKCC1 backbone with whole NKCC1 transmembrane domain, C-terminal apical sorting domain exchanged for that of mammalian NKCC2 isoform B; N-terminal HA tag; stably expressed in LLC-PK1 cells; NKCC2 part possibly rabbit; with Solute carrier family 12 member 1 (isoform B, C-terminal apical sorting domain)
Assay: FluxOR Tl+ influx fluorescence, initial rate, FlexStation, stably transfected LLC-PK1 cells
Type: cell-based
Conditions: external Cl- 3-135 mM (gluconate replacement); co-substrates Na+ and Tl+ (2 mM Tl2SO4), K+-free, pH 7.4; single-site fit; Cl- starved cells

`Cl` [Cl^-] showed a Km of 23.4 mM.
